# Assay results reported in patent publication US9532970B2, “Compositions for anti-inflammatory, antioxidant effects and improved respiratory function by specific histone deacetylase inhibition” (priority 2014, dated 2017).
# Read-outs that look alike come from different tables or passages of the source.
# Columns and labels:
# HDAC-6 = biological target: T1, HDAC-6 (Homo sapiens, UniProt Q9UBN7)
# T1 sequence (Q9UBN7 1-1215): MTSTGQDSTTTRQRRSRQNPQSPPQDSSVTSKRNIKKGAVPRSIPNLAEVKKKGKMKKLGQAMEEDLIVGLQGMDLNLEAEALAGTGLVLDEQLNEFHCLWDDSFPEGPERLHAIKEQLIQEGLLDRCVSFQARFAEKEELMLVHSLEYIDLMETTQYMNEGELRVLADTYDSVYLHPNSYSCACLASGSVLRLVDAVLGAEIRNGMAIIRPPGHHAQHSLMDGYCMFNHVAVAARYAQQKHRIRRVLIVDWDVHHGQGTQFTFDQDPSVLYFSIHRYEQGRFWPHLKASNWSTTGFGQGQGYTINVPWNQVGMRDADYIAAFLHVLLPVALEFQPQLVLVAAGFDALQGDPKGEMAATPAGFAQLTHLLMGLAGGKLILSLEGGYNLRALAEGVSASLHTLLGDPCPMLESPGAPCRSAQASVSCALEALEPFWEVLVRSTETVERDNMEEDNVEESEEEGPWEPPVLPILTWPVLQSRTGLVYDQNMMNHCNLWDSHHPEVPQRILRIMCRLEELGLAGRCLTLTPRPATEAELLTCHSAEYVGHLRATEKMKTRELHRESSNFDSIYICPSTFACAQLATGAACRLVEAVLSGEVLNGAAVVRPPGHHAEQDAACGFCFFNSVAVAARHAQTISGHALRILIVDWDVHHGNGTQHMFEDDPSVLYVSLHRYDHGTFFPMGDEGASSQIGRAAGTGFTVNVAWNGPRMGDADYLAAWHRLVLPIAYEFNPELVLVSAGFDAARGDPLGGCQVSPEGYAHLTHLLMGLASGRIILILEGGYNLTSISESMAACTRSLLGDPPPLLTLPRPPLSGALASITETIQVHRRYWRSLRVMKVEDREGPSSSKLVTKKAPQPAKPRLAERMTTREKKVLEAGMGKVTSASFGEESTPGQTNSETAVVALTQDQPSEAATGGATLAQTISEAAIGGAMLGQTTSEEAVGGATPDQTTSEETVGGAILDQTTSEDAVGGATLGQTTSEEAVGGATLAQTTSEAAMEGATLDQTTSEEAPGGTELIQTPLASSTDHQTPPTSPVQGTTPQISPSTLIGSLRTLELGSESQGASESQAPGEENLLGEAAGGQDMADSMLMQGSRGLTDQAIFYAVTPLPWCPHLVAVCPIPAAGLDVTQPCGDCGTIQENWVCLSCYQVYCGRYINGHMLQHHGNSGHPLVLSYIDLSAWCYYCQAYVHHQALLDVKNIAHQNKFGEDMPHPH
# [1] = tested on: naphthalene-induced airway epithelial damage; details: 5 mg/kg ip
smiles,measurement,setting,value
"C[S@@+]([O-])CCCCN=C=S [LSF, (R)-1-Isothiocyanato-4-(methylsulfinyl)butane]",HILLSLOPE,HDAC-6; HDAC-6,−0.88
same,binding to HDAC 6 (in words),HDAC-6; more subtle than Trichostatin A,specific binding
same,epithelial denudation,"[1]; 24 hours post-naphthalene, level analogous to dexamethasone 1 mg/kg",reduces
same,lamina reticularis thickness,"[1]; 72 hours post-naphthalene, efficacy similar to dexamethasone",reduces
same,NES,Horse PBMC; ENCODE TF target set GM12878RAD21 (r27),−3.95
same,NES,Horse PBMC; ENCODE TF target set GM12878_RAD21 (r28),−3.79
same,NES,Horse PBMC; ENCODE TF target set GM12878_YY1,3.41
same,NES,Horse PBMC; ENCODE TF target set GM12878_ZBTB33 (r17),3.05
same,NES,Horse PBMC; ENCODE TF target set GM12878_ZBTB33 (r21),2.89
same,NES,Horse PBMC; ENCODE TF target set H1HESC_POL2 (r12),3.34
same,NES,Horse PBMC; ENCODE TF target set H1HESC_POL2 (r13),3.33
same,NES,Horse PBMC; ENCODE TF target set H1NEURONS_NRSF,2.84
same,NES,Horse PBMC; ENCODE TF target set HEPG2_GRP20_FORSKLN,3.01
same,NES,Horse PBMC; ENCODE TF target set HEPG2_ZBTB33 (r11),3.35
same,NES,Horse PBMC; ENCODE TF target set HEPG2_ZBTB33 (r14),3.23
same,NES,Horse PBMC; ENCODE TF target set K562_KAP1,3.04
same,NES,Horse PBMC; ENCODE TF target set K562_STAT1_IFNA6H,−4.54
same,NES,Horse PBMC; ENCODE TF target set K562_STAT2_IFNA6H,−4.45
same,NES,Horse PBMC; ENCODE TF target set K562_TR4UCD,3.13
same,NES,Horse PBMC; ENCODE TF target set K562_ZBTB33,2.78
same,NES,Horse PBMC; ENCODE TF target set MCF10AES_STAT3,−3.75
same,NES,Horse PBMC; ENCODE TF target set SHSY5Y_GATA3,3.13
same,NES,Horse PBMC; ENCODE TF target set SKNMC_POL2,2.91
same,NES,Horse PBMC; ENCODE TF target set U2OS_SETDB1,2.83
same,"expression of CD markers, immunoglobulin containing genes and interleukins",Horse PBMC; LSF vs control,strongly down-regulated
same,"pathways related to interferon signalling, STAT1/2 targets and autoimmune/auto-inflammatory diseases",Horse PBMC; LSF vs control,strongly downregulated
same,NES,"Horse PBMC; MSigDB gene set ATGTTAA, MIR-302C",4.19
same,NES,Horse PBMC; MSigDB gene set CHEN HOXA5 TARGETS 9HR UP,4.3
same,NES,"Horse PBMC; MSigDB gene set CTTGTAT, MIR-381",4.1
same,NES,Horse PBMC; MSigDB gene set FULCHER INFLAMMATORY RESPONSE LECTIN VS LPS DN,−5.59
same,NES,Horse PBMC; MSigDB gene set GABRIELY MIR21 TARGETS,3.8
same,NES,Horse PBMC; MSigDB gene set GCM DFFA,4.6
same,NES,Horse PBMC; MSigDB gene set GCM MLL,4.08
same,NES,Horse PBMC; MSigDB gene set GCM MYST2,4.99
same,NES,Horse PBMC; MSigDB gene set GCM RAB10,3.8
same,NES,Horse PBMC; MSigDB gene set GCM SUFU,4.3
same,NES,Horse PBMC; MSigDB gene set GCM UBE2N,4.65
same,NES,Horse PBMC; MSigDB gene set GCM ZNF198,4.95
same,NES,Horse PBMC; MSigDB gene set GSE10239 NAIVE VS MEMORY CD8 TCELL UP,4.2
same,NES,Horse PBMC; MSigDB gene set GSE10325 CD4 TCELL VS MYELOID DN,−6.35
same,NES,Horse PBMC; MSigDB gene set GSE10325 LUPUS BCELL VS LUPUS MYELOID DN,−6.47
same,NES,Horse PBMC; MSigDB gene set GSE10325 LUPUS CD4 TCELL VS LUPUS MYELOID DN,−7.15
same,NES,Horse PBMC; MSigDB gene set GSE11057 CD4 EFF MEM VS PBMC DN,−5.63
same,NES,Horse PBMC; MSigDB gene set GSE13485 CTRL VS DAY3 YF17D VACCINE PBMC DN,−5.66
same,NES,Horse PBMC; MSigDB gene set GSE13485 CTRL VS DAY7 YF17D VACCINE PBMC DN,−6.96
same,NES,Horse PBMC; MSigDB gene set GSE13485 DAY3 VS DAY7 YF17D VACCINE PBMC DN,−5.63
same,NES,Horse PBMC; MSigDB gene set GSE13485 DAY7 VS DAY21 YF17D VACCINE PBMC UP,−5.61
same,NES,Horse PBMC; MSigDB gene set GSE22866 NAIVE CD4 TCELL VS MONOCYTE DN,−5.6
same,NES,Horse PBMC; MSigDB gene set GSE24634 IL4 VS CTRL TREATED NAIVE CD4 TCELL DAY5 UP,−5.8
same,NES,Horse PBMC; MSigDB gene set GSE24634 TREG VS TCONV POST DAY10 IL4 CONVERSION DN,−5.97
same,NES,Horse PBMC; MSigDB gene set GSE29617 CTRL VS DAY3 TIV FLU VACCINE PBMC 2008 UP,4.12
same,NES,Horse PBMC; MSigDB gene set GSE29618 BCELL VS MDC DAY7 FLU VACCINE DN,−5.93
same,NES,Horse PBMC; MSigDB gene set HAMAI APOPTOSIS VIA TRAIL UP,5.42
